From BindingDB's records for doi:10.1016/j.bmcl.2011.10.055 (Cephalon, 2011)

Biological target: Insulin receptor (Homo sapiens, UniProt P06213)
Experiment: Inhibition of GST-tagged intracellular domain of IR by homogeneous time-resolved fluorescence assay

| SMILES | IC50 [µM] |
| --- | --- |
| C=c1nns/c1=c1\[nH][nH]c(=O)c1=Cc1cn(C)c2cccc(OCc3cccc(F)c3)c12 | > 10 |
| C=c1nns/c1=c1\[nH][nH]c(=O)c1=Cc1cn(C)c2cccc(OCc3ccc(F)cc3)c12 | > 10 |
| C=c1nns/c1=c1\[nH][nH]c(=O)c1=Cc1cn(C)c2cccc(OCc3ccc(F)cc3F)c12 | > 10 |

Now from value to molecule:

| IC50 [µM] | SMILES |
| --- | --- |
| > 10 | C=c1nns/c1=c1\[nH][nH]c(=O)c1=Cc1cn(C)c2cccc(OCc3ccccc3)c12 |
| > 10 | C=c1nns/c1=c1\[nH][nH]c(=O)c1=Cc1cn(C)c2cccc(OCc3ccccc3F)c12 |
